Values of other authors, collected in patent publication US6426091B1, “Sustained-release theophylline tablet” (Nikken Chemicals Co., Ltd., priority 1997, dated 2002).

SMILES: Cn1c(=O)c2[nH]cnc2n(C)c1=O [Theophylline]
- biological half-life (adults): about 6 hours
- concentration in the blood above which serious side effects (cardiovascular system, central nervous system) sometimes appear (background art): exceeds 20 μg/ml
